ChEMBL document CHEMBL1122249, “Synthesis of hypoxanthine, guanine, and 6-thiopurine nucleosides of 6-deoxy-D-allofuranose” (1983)

Columns and labels:
L1210 [1] = assay: Median survival time of inhibitory activity against L1210 tumor cells in mouse at the dose of 12.5 mg/kg; assay type: functional
Mus musculus [2] = assay: Average weight change in mouse after the treatment with 25 mg/kg dose of the compound; assay type: functional
Mus musculus [3] = assay: Average weight change in mouse after the treatment with 100 mg/kg dose of the compound; assay type: functional
Mus musculus [4] = assay: Survivors after the treatment with 50 mg/kg dose for 5 days in 6 mice; assay type: functional
Mus musculus [5] = assay: Average weight change in mouse after the treatment with 50 mg/kg dose of the compound; assay type: functional
L1210 [6] = assay: Median survival time of inhibitory activity against L1210 tumor cells in mouse at the dose of 25 mg/kg; assay type: functional
L1210 [7] = assay: Median survival time of inhibitory activity against L1210 tumor cells in mice at the dose of 200 mg/kg; assay type: functional, Mus musculus
Mus musculus [8] = assay: Survivors after the treatment with 12.5 mg/kg dose for 5 days in 6 mice; assay type: functional
Mus musculus [9] = assay: Survivors after the treatment with 100 mg/kg dose for 5 days in 6 mice; assay type: functional
L1210 [10] = assay: Median survival time of inhibitory activity against L1210 tumor cells in mouse at the dose of 50 mg/kg; assay type: functional
Mus musculus [11] = assay: Average weight change in mouse after the treatment with 12.5 mg/kg dose of the compound; assay type: functional
Mus musculus [12] = assay: Survivors after the treatment with 200 mg/kg dose for 5 days in 6 mice; assay type: functional
Mus musculus [13] = assay: Survivors after the treatment with 25 mg/kg dose for 5 days in 6 mice; assay type: functional
Mus musculus [14] = assay: Average weight change in mouse after the treatment with 200 mg/kg dose of the compound; assay type: functional
L1210 [15] = assay: Median survival time of inhibitory activity against L1210 tumor cells in mouse at the dose of 100 mg/kg; assay type: functional

CC(O)[C@H]1O[C@@H](n2cnc3c(S)ncnc32)[C@H](O)[C@@H]1O (stereo not given in full)
T/C (L1210 [1]): 107%
Average weight change (Mus musculus [2]): -1.4
Average weight change (Mus musculus [3]): -3.6
Survivors (Mus musculus [4]): 6
Average weight change (Mus musculus [5]): -1.7
T/C (L1210 [6]): 116%
T/C (L1210 [7]): 148%
Survivors (Mus musculus [8]): 6
Survivors (Mus musculus [9]): 6
T/C (L1210 [10]): 142%
Average weight change (Mus musculus [11]): -1
Survivors (Mus musculus [12]): 6
Survivors (Mus musculus [13]): 6
Average weight change (Mus musculus [14]): -4.4
T/C (L1210 [15]): 146%
